3 molecules from publication PMC10794345, “Analysis of vascular disruption in zebrafish embryos as an endpoint to predict developmental toxicity” (Archives of Toxicology, 2023) can be followed below.

Common to all, as to type: in vivo, zebrafish (D. rerio)
Data set [1] has as its system zebrafish embryos (wild-type strain OBI/WIK). As to the kind of experiment: Lethality of zebrafish embryos at 96 hpf. The note with it: for Mortality (in words): embryos exposed from 24 hpf, compared to exposure from 3 hpf. The procedure: (§1) Fertilized and normally developed embryos were selected according to Kimmel et al. ([1995]) with a dissection microscope (Olympus SZx7-ILLT) at 1 hpf. Depending on experiment, exposure was started within 2–3 h post-fertilization (16–128 cell stages) or at 24 hpf. Exposure was conducted in rectangular 96-well microplates (Clear Polystyrene, flat bottom, Uniplate, Whatman, GE Healthcare) covered by a lid with a test volume of 400 µL of exposure media. For each replicate one embryo per well and 16 wells per concentration were assessed. Experiments were performed with at least two replicates on independent days and breeding.
(§2) Concentration–response curves were fitted for lethality, heart rate, morphological features as previously described (Teixidó et al. [2019], [2022]). The assessment of lethality and morphological features was based on the percentage of embryos affected. Therefore, morphological endpoints were dichotomized, i.e. feature metrics were converted to the percentage of embryos deviating from controls. An embryo was considered to deviate when it was outside 1.5-fold of the standard deviation range of the mean of the control group. The control mean was determined by pooling control embryos across all experiments (n = 160) (available at git.ufz.de). For heart rate and angiogenesis (number of ISVs) the analysis was based on normalized values, i.e. for each experiment the values of the treatment were divided by the control value. The experiments were designed to calculate effect concentrations based on modelled curve fits. Different concentrations were used in at least two independent replicates, with means of each replicate based on the exposure of 16 different embryos per concentrations. Effect concentration were only modeled when three conditions were met. (1) The Tukey trend test based on the R package "tukeytrend" (Schaarschmidt et al. [2022]) was deriving a maximum p-value of 0.05. (2) The Akaike information criterion (AIC) for the log-logistic model was lower than the AIC for a linear model with slope 0 (lower p values for the letter would indicate that there is no trend in the data). (3) We calculated effect concentrations only if at least 30% of embryos for that endpoint were affected in at least one exposure concentration of (for normalized data) a reduction or increase by 30% was observed.

Data set [2] has as its system zebrafish embryos, transgenic line Tg(kdr:EGFP). As to the kind of experiment: Number of ISVs by video subtraction in Tg(kdr:EGFP) zebrafish embryos. The procedure:
as §1
(§3) To determine the number of ISVs in the trunk region, high-resolution images of 96 hpf-old zebrafish embryos were recorded using a Leica DM6B-Z microscope (Leica, Wetzlar, Germany) attached to the VAST imaging system, and a camera (Leica DFC9000 sCMOS, objective: HC APO L U-V-I 20x/0.50 WATER UV). A series of 20 images with a frame rate of 20 images per second and a 2 × 2 pixel binning was recorded in autofocus mode for each embryo. For the Tg(kdr:EGFP) strain, one additional fluorescence image was obtained using a fluorescent filter set (emission wavelength 540 nm, excitation filter BP 450–490) and a camera exposure time of 129 ms and a 2. × 2 binning in autofocus mode.
A series of MATLAB scripts (Supplement File ‘Workflow 3.m’ and ‘Workflow 4.m’) was used to convert the image series into a video and to visualize the blood vessel by applying a video subtraction approach (Figure SI1). Briefly, each video frame was subtracted from the average image of the whole image sequence and converted to a binary image by applying a Gaussian blur (σ = 5) and a threshold of 0.025 to obtain optimal contrast in binary images. Subsequently, the sum of all binary images was calculated. Due to movement of the blood cells the subtraction approach removed all parts from the image which were not moving resulting in an image of the blood vessels. This binary image of the blood vessel network in the zebrafish embryo tail was then processed with the FishInspector annotation software (version 1.70). […] The number of ISVs was obtained by application of a KNIME workflow to FishInspector annotation files. Subsequently concentration–response analysis was conducted using a KNIME workflow. The coefficient of variation (CV) of controls was calculated for both the subtraction and the fluorescence-based method by dividing the standard deviation of individual embryos with the control mean: CVControl=SD/Mean.
Concentration–response curves were fitted for lethality, heart rate, morphological features as previously described (Teixidó et al. [2019], [2022]). The assessment of lethality and morphological features was based on the percentage of embryos affected. Therefore, morphological endpoints were dichotomized, i.e. feature metrics were converted to the percentage of embryos deviating from controls. An embryo was considered to deviate when it was outside 1.5-fold of the standard deviation range of the mean of the control group. The control mean was determined by pooling control embryos across all experiments (n = 160) (available at git.ufz.de). For heart rate and angiogenesis (number of ISVs) the analysis was based on normalized values, i.e. for each experiment the values of the treatment were divided by the control value. The experiments were designed to calculate effect concentrations based on modelled curve fits. […]

Data set [3] has the same test system. As to the kind of experiment: Number of ISVs by fluorescence imaging in Tg(kdr:EGFP) zebrafish embryos. As to conditions: exposure 24–96 hpf, 0.31–10 µM. As for the experimental part: as §1
as §3, with “mode. […]” for “mode.”

Data set [4] is described as follows: Lethality of zebrafish embryos at 96 hpf. As to conditions: OBI/WIK wild-type, zebrafish, in vivo, other: immersion of embryos in exposure media, ± 95% confidence intervals. As for the experimental part: as §1, §2

For `CN(C)c1ccc(C=C2C(=O)Nc3ccccc32)cc1` [SU4312], the 50% lethal concentration (LC50) in data set [1] (3–96 hpf exposure, ± 95% confidence intervals) is 2110 ± 220 nM. For the same molecule, the “Mortality (in words)” value in data set [1] is reported as “no”. In addition, in data set [2] (Tg(kdr:EGFP), exposure 24–96 hpf, 0.31–10 µM), the “EC10 (IC10) number of ISVs, subtraction image” value turned out to be 720 nM. In addition, the EC50 in data set [2] (Tg(kdr:EGFP), exposure 24–96 hpf, 0.31–10 µM, read-out: EC50 (IC50) number of ISVs, subtraction image) was 2980 nM; in data set [2] (arterial ISVs only, subtraction method, ± 95% confidence where given, read-out: aISVs EC50), 2580 ± 3120 nM; in data set [2] (subtraction method, ± 95% confidence where given, read-out: all ISVs EC50 (combined assessment)) it was 2980 nM; in data set [2] (venous ISVs only, subtraction method, ± 95% confidence where given, read-out: vISVs EC50) it was 750 ± 170 nM; in data set [3] (read-out: EC50 number of ISVs, fluorescent image) it was greater than 10000 nM. In data set [3], the “EC10 (IC10) number of ISVs, fluorescent image” value was found to be 1170 nM.

As to `Cc1cc(C)c(/C=C2\C(=O)Nc3ccccc32)[nH]1` [SU5416], in data set [1], the “Mortality (in words)” value is “reduced”. Moreover, the figures for the LC50 in data set [4] (3–96 hpf exposure) and in data set [4] (24–96 hpf exposure) were 890 ± 420 nM and 1930 ± 830 nM, respectively.

With `CNC(=O)c1cc(Oc2ccc(NC(=O)Nc3ccc(Cl)c(C(F)(F)F)c3)cc2)ccn1` [Sorafenib], the “Mortality (in words)” value in data set [1] was “no”. The LC50 in data set [4] (3–96 hpf exposure) is 2800 ± 310 nM.
